In patent US5198461A, “Isatine derivatives, their preparation and use” (NeuroSearch A/S, priority 1989, dated 1993):

What was measured:
[1] = target: 3H-kainate, 3H-AMPA and/or 3H-glycine binding sites; experiment: Kainate, quisqualate (3H-AMPA) and glycine binding assays; conditions: site(s) not specified per compound ('and/or')
Experimental: The quisqualate binding assay was performed as described by T. Honore et al., Neuroscience Letters 54, 27-32 (1985).
The kainate binding assay was performed as described by T. Honore et al., Neuroscience Letters 65, 47-52 (1986).
The glycine binding assay was performed as described by W. Frost White et al., Journal of Neurochemistry 53(2), 503-512 (1989).

[2] = test system: ATPA-induced rigidity in female NMRI mice; experiment: ATPA-induced rigidity; assay type: in vivo; conditions: Mus musculus, 15 mg/kg ATPA i.v., test compound i.v. or p.o., read-out: ED50, inhibition of ATPA-induced rigidity
Experimental: The selective quisqualate receptor agonist ATPA induces rigidity in female NMRI mice at doses between 3 and 15 mg/kg and clonic-tonic seizures and death, probably due to respiratory arrest, at doses between 15 and 40 mg/kg after intravenous (i.v.) administration.
ATPA ((RS)-α-amino-3-hydroxy-5-tert-butyl-4-isoxazolepropionic acid) was dissolved in distilled water and test compound was dissolved in a polyoxyl 40 hydrogenated castor oil (5% Cremophor RH™ 40 (BASF)).
Test compound was administered either i.v. 5, 30 or 120 min before or p.o. 30 min before an i.v. administration of 15 mg/kg of ATPA to 8 female NMRI mice per dose and the number of mice experiencing rigidity 5 min later was noted. An ED50 value was calculated from at least three doses of test compound as the dose inhibiting 50% of the mice from having rigidity.

[3] = test system: quisqualate-induced clonic seizures in male DBA/2 mice; experiment: Quisqualate-induced clonic seizures; assay type: in vivo; conditions: Mus musculus, iv, quisqualate icv, test compound i.v. 5 min before, given as 'quisqualate or NMDA-induced convulsions', read-out: ED50, inhibition of quisqualate-induced convulsions
Experimental: Quisqualate given icv (intracerebroventricular) to DBA/2 mice induces clonic seizures which can be inhibited by both NMDA and non-NMDA receptor antagonists after i.v. administration.
Test compound was given i.v. 5 min before a 20 pg icv administration of quisqualate to 10 male DBA/2 mice (weighing 10-12 g) per dose. The number of mice experiencing clonic seizures within the next 2 min was noted. An ED50 value was calculated as the dose inhibiting 50% of the mice from having clonic seizures.

[4] = test system: NMDA-induced clonic seizures in male NMRI mice; experiment: NMDA-induced clonic seizures; assay type: in vivo; conditions: Mus musculus, iv, NMDA icv, test compound i.v. 5 min before, given as 'quisqualate or NMDA-induced convulsions', read-out: ED50, inhibition of NMDA-induced convulsions
Experimental: NMDA give icv to NMRI mice induces clonic seizures which can be inhibited by NMDA receptor antagonists.
Test compound was given i.v. 5 min before a 0.5 μg icv administration of NMDA to 10 male NMRI mice per dose. The number of mice experiencing clonic seizures within the next 2 min was noted. An ED50 value was calculated as the dose inhibiting 50% of the mice from having clonic seizures.

[5] = test system: cocaine-induced hypermotility in female NMRI mice; experiment: Cocaine-induced hypermotility; assay type: in vivo; conditions: Mus musculus, po, administered orally, 25 mg/kg cocaine i.p., read-out: ED50, antagonism of cocaine-induced hypermotility
Excerpt: Quisqualate and kainate administered locally induce an increase in dopamine release in nucleus accumbens and nucleus caudatus accompanied by stereotype behaviour such as hyperlocomotion, rearing, sniffing and grooming. These effects can be inhibited by selective quisqualate antagonists administered locally by the micro-dialyses method.
Also the dopamine uptake inhibitor cocaine administered s.c. induce hypermotility which can be inhibited by an administration of the glutamate antagonist GDEE into nucleus accumbens.
Test compound was administered orally at doses of 0.1, 1, 10 and 30 mg/kg 30 min before the administration of 25 mg/kg cocaine i.p. to female NMRI mice and the locomotor activity of 2 mice per box was measured for the next 2 hours by use of 8 infrared photobeams per box. The mice had been adapted to the box for at least 16 hours to avoid exploratory motility (neophobia).

Row | IC50 [1] [µM] | SMILES | further results
1 | 10 to 100 | O=C1Nc2c(ccc3ccccc23)C1=NO [1H-benz[g]indole-2,3-dione-3-oxime] | –
2 | – | CCOC(=O)CN1C(=O)C(=NOC)c2cc([N+](=O)[O-])cc([N+](=O)[O-])c21 [5,7-dinitro-1-(ethoxycarbonylmethyl)-1H-indole-2,3-dione-3-(O-methyloxime)] | ED50 [2]: 0.1 to 10 mg/kg; ED50 [3]: 0.1 to 10 mg/kg; ED50 [4]: 0.1 to 10 mg/kg
3 | – | CON=C1C(=O)N(C)c2c1cc([N+](=O)[O-])cc2[N+](=O)[O-] [5,7-dinitro-1-methyl-1H-indole-2,3-dione-3-(O-methyloxime)] | ED50 [2]: 0.1 to 10 mg/kg; ED50 [3]: 0.1 to 10 mg/kg; ED50 [4]: 0.1 to 10 mg/kg; ED50 [5]: 0.5 to 1 mg/kg
4 | 10 to 100 | CNS(=O)(=O)c1cc2c(c3c1CCCC3)NC(=O)C2=NO [5-(N-methylsulphamoyl)-6,7,8,9-tetrahydro-1H-benz[g]indole-2,3-dione-3-oxime] | –
5 | 10 to 100 | O=C1Nc2c(cc(S(=O)(=O)NOCc3ccccc3)c3c2CCCC3)C1=NO [5-(benzyloxysulphamoyl)-6,7,8,9-tetrahydro-1H-benz[g]indole-2,3-dione-3-oxime] | –
6 | 10 to 100 | O=C1Nc2c(cc(Br)cc2[N+](=O)[O-])C1=NO [5-bromo-7-nitro-1H-indole-2,3-dione-3-oxime] | –
7 | 10 to 100 | O=C1Nc2c(cc([N+](=O)[O-])c3c2CCCC3)C1=NO [5-nitro-1H-6,7,8,9-tetrahydro-benz[g]indole-2,3-dione-3-oxime] | –
8 | 10 to 100 | O=C1Nc2c(cc([N+](=O)[O-])c3ccccc23)C1=NO [5-nitro-1H-benz[g]indole-2,3-dione-3-oxime] | –
9 | 10 to 100 | O=C1Nc2ccc([N+](=O)[O-])cc2C1=NO [5-nitro-1H-indole-2,3-dione-3-oxime] | –

Row | SMILES | IC50 [1] [µM] | further results
10 | CN1C(=O)C(=NO)c2cc([N+](=O)[O-])cc([N+](=O)[O-])c21 [5,7-dinitro-1-methyl-1H-indole-2,3-dione-3-oxime] | 10 to 100 | –
11 | O=C1Nc2c(cc([N+](=O)[O-])cc2[N+](=O)[O-])C1=NO [5,7-dinitro-1H-indole-2,3-dione-3-oxime] | 10 to 100 | –
